The values below come from publication PMC9130233, “An inhibitor of RORγ for chronic pulmonary obstructive disease treatment” (Scientific Reports, 2022).

Test [1] has as its system Ca Channel (L type). Put plainly: Cerep panel, Ca channel (L type). From the text:
(§1) Based on the homology of the ligand binding domains, 3 different isoforms of ROR (hRORα, hRORβ and hRORγ) are reported. Small variations in the LBD regions possibly lead to differences in competitive binding between the nuclear receptors of the ROR isoforms (Fig. 1b). Similar to the assessment of RORγ binding assay, TR-FRET binding assays were also used to assess the affinity of PCCR-1 for other ROR isoforms. […] This was reconfirmed in cellular functional assays for the selected isoforms and nuclear receptors using Gal4 DBD with luciferase reporter system from Indigo (PA, USA). […] In addition, both cellular agonist and antagonist effects as well as for enzyme activity were evaluated with a known reference compound for each target, using a radiolabeled method (Eurofins Cerep, France, Table 1).

The subject of test [2] is T1, RARα.
T1 construct: purchased Invitrogen
Put plainly: TR-FRET selectivity binding assay, RARα.
Excerpt: as §1
(§2) For selectivity, the ROR isoforms RORα, FXR, LXRα, LXRβ, RXR, RARα were incubated with compound for 60 min at 22 °C followed by detection mix containing respective agonist (All trans retinoic acid for RARα, T0901317 for LXRα, LXRβ, 9-cis Retinoic acid for RXR, GW-4064 for FXR) and coactivator peptide (FD22 for RORα, PGC1α for RXR, RARα, TRAP220 for LXRα, LXRβ, SRC2-2 for FXR) and Tb-anti GST antibody prepared in assay buffer were added into a 384-well white plate. Reading taken after overnight incubation and the data analysis done as per the protocol mentioned in RORγt-LBD and co-activator ligand binding assay.

Test [3] deals with T2, FXR.
T2 construct: purchased Invitrogen
Nature of the test: TR-FRET selectivity binding assay, FXR.
Excerpt: as §1, §2
Background: TR-FRET usually uses a lanthanide donor and a delayed reading to cut background.

Test [4] relates to IL-17A release in mouse splenocytes. Put plainly: IL-17A release, mouse splenocytes, anti-CD3 + anti-CD28. It counts as cell-based. As to conditions: Splenocyte, anti-CD3 + anti-CD28, n = 13, read-out: Cellular activity: Mouse IC50, IL-17A release. The procedure: Inhibition of RORγ by PCCR-1 was also estimated in a functional assay by measuring the inhibition of Th17 dependent cytokine IL-17A release in human peripheral blood mononuclear cells (PBMCs), mouse splenocytes and canine PBMC stimulated with their respective anti-CD3 and anti-CD28 antibodies.
Splenocytes were prepared from 6–8 week old BALB/c mice and cells were seeded in 96-well plates coated with mouse anti-CD3 mAb (10 µg/mL). Cells were treated with test compounds for 30 min followed by stimulation with mouse anti- CD28 mAb (3 µg/mL) for 72 h at 37 °C in 5% CO2 incubator. The supernatant was used for estimating mouse IL-17 by ELISA.

Test [5] has as its target T3, Alpha 1D (Homo sapiens, UniProt P25100).
T3 construct: Eurofins Cerep
Put plainly: Cerep panel, Alpha 1D.
Excerpt: as §1

Test [6] has as its system IL-17 release in human neutrophils. Put plainly: IL-17 release, human neutrophils, PMA + ionomycin. Particulars: Neutrophil, n = 4, read-out: potency, IL-17 release inhibition. The class given is cell-based. How it is done:
The human neutrophils were isolated by Ficoll-Hypaque by centrifugation of blood from healthy subjects at 700 g for 30 min, followed by erythrocyte lysis with distilled water for 30 s. Cells were washed in PBS and post 1 h treatment with PCCR-1, cells were stimulated with 50 ng/mL PMA and 2 µg/mL Ionomycin. After 18 h the supernatant was collected for IL-17 estimation by ELISA.

In test [7] the test system is IL-22 release in human PBMC. Nature of the test: IL-22 release, human PBMC under Th17 polarization conditions. Particulars: human PBMC under Th17 polarization condition. The class given is cell-based. The procedure:
An increase in the levels of Th17 dependent cytokine in the peripheral blood of COPD patients as compared to the Th1 and Th2 dependent cytokines has been well documented in a subset of COPD patients. A comparative study was performed under TCR activating conditions to evaluate the potencies of PCCR-1 for inhibition across Th1, Th2 and Th17 dependent cytokines using hPBMCs.
Human whole blood from healthy subjects were procured from Clinical Research Unit, Sanpada. Clinical Research Center Glenmark (Plot No. D, 508, Turbhe, TTC Industrial Area, MIDC, Sanpada, Navi Mumbai, Maharashtra 400705, India). PBMCs were isolated using heparinized blood with Ficoll Histopaque. Briefly, the cells were seeded in 96-well plate pre-coated with human anti-CD3 mAb (10 µg/mL), post 30 min of compound treatment cells were stimulated with human anti-CD28 mAb (2 µg/mL). After 72 h of culture, the supernatant was collected for Th1/Th2 cytokines; IFN-γ, IL-2, IL-4 and IL-10 and measured by ELISA. For Th17 polarization assay, the following cytokine cocktail was used: IL-1β (10 ng/ml), IL-23(10 ng/ml), IL-6 (50 ng/ml), TGF-β1 (3 ng/ml), IL-2 (20U/ml) and supernatants were used for measuring IL-17 and IL-22 by ELISA.

Test [8] has as its system IL-17 release from COPD patient whole blood. Put plainly: IL-17 release, whole blood from COPD patients. It counts as cell-based. Particulars: Homo sapiens; TCR stimulated, n = 5; read-out: IL-17 IC50, COPD patient's sample: WB. The procedure:
Whole blood and BAL samples from COPD patients were obtained from Multispecialty hospital, Mumbai post approval from ethics committee and informed consent of patients. 30–40 mL Broncho alveolar lavage (BALf) was collected per patient and stored in ice. Blood was collected in heparin vaccutainer as per approved protocol. Both the samples were processed within 2 h of collection. BALF was passed through 100-µm and 40-µm cell strainer to remove debris and mucus, the samples were centrifuged and the cells were re-suspended in RPMI 1640 complete medium. PBMCs from blood were isolated using Histopaque-1077 by density gradient centrifugation. Isolated BAL cells and PBMCs were seeded in 96 well coated with 10 µg/ml anti-CD3 and 2 µg/ml anti-CD2. Cells were further treated with different concentration of test compound for 60 min followed by stimulation with 20 µg/ml anti-CD28 and incubated for 48–72 h. The supernatant was used for estimating IL-17 by ELISA.

T3 sequence (P25100 whole entry): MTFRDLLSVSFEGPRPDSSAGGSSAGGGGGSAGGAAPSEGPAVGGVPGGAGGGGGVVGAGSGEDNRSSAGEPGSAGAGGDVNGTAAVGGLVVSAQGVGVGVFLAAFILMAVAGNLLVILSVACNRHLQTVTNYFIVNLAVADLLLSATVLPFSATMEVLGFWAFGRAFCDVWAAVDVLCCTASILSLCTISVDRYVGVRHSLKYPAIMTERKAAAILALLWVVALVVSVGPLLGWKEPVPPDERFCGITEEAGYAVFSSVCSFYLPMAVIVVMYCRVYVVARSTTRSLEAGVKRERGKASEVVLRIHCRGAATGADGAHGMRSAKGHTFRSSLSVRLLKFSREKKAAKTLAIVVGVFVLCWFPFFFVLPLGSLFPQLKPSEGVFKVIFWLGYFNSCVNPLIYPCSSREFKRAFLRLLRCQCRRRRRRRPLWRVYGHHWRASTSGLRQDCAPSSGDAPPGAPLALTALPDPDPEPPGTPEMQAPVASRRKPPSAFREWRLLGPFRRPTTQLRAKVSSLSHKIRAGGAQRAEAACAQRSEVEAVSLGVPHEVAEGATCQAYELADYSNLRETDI

With `CCn1c(C(C)(C)Oc2ccc(F)cc2F)nc2cc(NC(=O)Cc3ccc(S(=O)(=O)CC)cc3)ccc21` [PCCR-1], the IC50 was 2600 nM in test [1]; 766 nM in test [4]; 550 nM in test [5]; 3660 nM in test [6]; 43.8 nM in test [7] (n = 2, read-out: hIL-22 IC50); 5050 nM in test [8]. Moreover, the “% Inhibition RARα” value in test [2] (1 µM) and in test [2] (10 µM) was 0.00% throughout. In addition, the “Fold over hRORγ, RARα” value in test [2] (vs RORg IC50 31.87 nM) is listed as more than 313.7 fold. The “% Inhibition FXR” value in test [3] (1 µM) was found to be 21.45%; in test [3] (10 µM), 19.81%. The “Fold over hRORγ, FXR” value in test [3] (vs RORg IC50 31.87 nM) was more than 313.7 fold. Besides, the “ceiling effect for IL-22 release inhibition” value in test [7] is reported as 60%.
